Patent publication US8648066B2 (Exelixis, Inc., priority 2009, dated 2014)

What follows are compounds tested against mTOR/GbL/Raptor (mTORC1) (Homo sapiens, UniProt P42345) (assay: mTOR/GbL/Raptor (mTORC1) ELISA assay). Details: phosphorylation of 4E-BP1; 0.2 nM mTORC1, 10 μM ATP; read-out: IC50 in this assay (mTORC1 ELISA).
Type: biochemical
Protocol: The measurement of mTORC1 enzyme activity was performed in an ELISA assay format following the phosphorylation of 4E-BP1 protein. All experiments were performed in the 384-well format. Generally, 0.5 μL DMSO containing varying concentrations of the test Compound was mixed with 15 μL enzyme solution. Kinase reactions were initiated with the addition of 15 μL of substrates-containing solution. The assay conditions were as follows; 0.2 nM mTORC1, 10 μM ATP and 50 nM NHis-tagged 4E-BP1 in 20 mM Hepes, pH 7.2, 1 mM DTT, 50 mM NaCl, 10 mM MnCl2, 0.02 mg/mL BSA, 0.01% CHAPS, 50 mM β-glycerophosphate. Following an incubation of 120 minutes at ambient temperature, 20 μL of the reaction volume was transferred to a Ni-Chelate-coated 384-well plate. The binding step of the 4E-BP1 protein proceeded for 60 minutes, followed by washing 4 times each with 50 μL of Tris-buffered saline solution (TBS). Anti-phospho-4E-BP1 rabbit-IgG (20 μL, 1:5000) in 5% BSA-TBST (0.2% Tween-20 in TBS) was added and further incubated for 60 minutes. Incubation with a secondary HRP-tagged anti-IgG was similarly performed after washing off the primary antibody (4 washes of 50 μL). Following the final wash step with TBST, 20 μL of SuperSignal ELISA Femto (Pierce Biotechnology) was added and the luminescence measured using an EnVision plate reader.

| IC50 | SMILES |
| --- | --- |
| 10 to 50 nM | Cc1nc2cc(-c3ccc4c(c3)CN(c3nc(CNCCF)nc(C)c3C(C)C)CCO4)ccc2[nH]1 [Example 679, 2-fluoro-N-({4-methyl-6-[7-(2-methyl-1H-benzimidazol-5-yl)-2,3-dihydro-1,4-benzoxazepin-4(5H)-yl]-5-(1-methylethyl)pyrimidin-2-yl}methyl)ethanamine] |
| 50 to 250 nM | CC[C@H]1CCc2c(ncnc2N2CCOc3ccc(-c4cnc5nc([C@H](C)N)[nH]c5c4)cc3C2)C1 [Example 298, (1S)-1-(6-{4-[(7S)-7-ethyl-5,6,7,8-tetrahydroquinazolin-4-yl]-2,3,4,5-tetrahydro-1,4-benzoxazepin-7-yl}-1H-imidazo[4,5-b]pyridin-2-yl)ethanamine] |
| 250 to 1000 nM | COc1ccc(-c2ccc3c(c2)CN(c2nc(CN(C)C)nc(C)c2C(C)C)CCO3)cc1NS(C)(=O)=O [Example 656, N-[5-(4-{2-[(dimethylamino)methyl]-6-methyl-5-(1-methylethyl)pyrimidin-4-yl}-2,3,4,5-tetrahydro-1,4-benzoxazepin-7-yl)-2-(methyloxy)phenyl]methane-sulfonamide] |
| 10 to 50 nM | CN(CCO)S(=O)(=O)c1cc(-c2ccc3c(c2)CN(c2ncnc4c2CC(C)(C)CC4)CCO3)cnc1N [Example 370, 2-amino-5-[4-(6,6-dimethyl-5,6,7,8-tetrahydroquinazolin-4-yl)-2,3,4,5-tetrahydro-1,4-benzoxazepin-7-yl]-N-(2-hydroxyethyl)-N-methylpyridine-3-sulfonamide] |
| 250 to 1000 nM | COc1cncc(-c2ccc3c(c2)CN(c2ncnc4c2CC(C)(C)CC4)CCO3)c1 [Example 476, 4-(6,6-dimethyl-5,6,7,8-tetrahydroquinazolin-4-yl)-7-[5-(methyloxy)pyridin-3-yl]-2,3,4,5-tetrahydro-1,4-benzoxazepine] |
| 50 to 250 nM | Cc1nc2ccc(-c3ccc4c(c3)CN(c3nc(CN5CC[C@@H](F)C5)nc5c3CC(C)(C)CC5)CCO4)cc2[nH]1 [Example 461] |
| 10 to 50 nM | Cc1nc2ccc(-c3ccc4c(c3)CN(c3ncnc5c3CCC(C)(C)C5)CCO4)cc2[nH]1 [Example 95, 4-(7,7-dimethyl-5,6,7,8-tetrahydroquinazolin-4-yl)-7-(2-methyl-1H-benzimidazol-6-yl)-2,3,4,5-tetrahydro-1,4-benzoxazepine] |
| ≤ 10 nM | CC1(C)CCc2ncnc(N3CCOc4ccc(-c5cnc6[nH]c(C7CC7)nc6c5)cc4C3)c2C1 [Example 224, 7-(2-cyclopropyl-3H-imidazo[4,5-b]pyridin-6-yl)-4-(6,6-dimethyl-5,6,7,8-tetrahydroquinazolin-4-yl)-2,3,4,5-tetrahydro-1,4-benzoxazepine] |
| 10 to 50 nM | COc1cc2ncnc(N3CCOc4ccc(-c5ccc6nc(C)[nH]c6c5)cc4C3)c2cc1I [Example 37, 4-[6-iodo-7-(methyloxy)quinazolin-4-yl]-7-(2-methyl-1H-benzimidazol-6-yl)-2,3,4,5-tetrahydro-1,4-benzoxazepine] |
| 10 to 50 nM | Nc1nc2ncc(-c3ccc4c(c3)CN(c3ncnc5ccc(F)cc35)CCO4)cc2[nH]1 [Example 187, 6-[4-(6-fluoroquinazolin-4-yl)-2,3,4,5-tetrahydro-1,4-benzoxazepin-7-yl]-1H-imidazo[4,5-b]pyridin-2-amine] |
| ≤ 10 nM | Cc1nc(N)nc(N2CCOc3ccc(-c4ccc5[nH]cnc5c4)cc3C2)c1Cc1ccc(F)cc1 [Example 651, 4-[7-(1H-benzimidazol-5-yl)-2,3-dihydro-1,4-benzoxazepin-4(5H)-yl]-5-[(4-fluorophenyl)methyl]-6-methylpyrimidin-2-amine] |
| 50 to 250 nM | CN(C)C1CN(S(=O)(=O)c2cc(-c3ccc4c(c3)CN(c3ncnc5c3CC(C)(C)CC5)CCO4)cnc2N)C1 [Example 455, 3-{[3-(dimethylamino)azetidin-1-yl]sulfonyl}-5-[4-(6,6-dimethyl-5,6,7,8-tetrahydroquinazolin-4-yl)-2,3,4,5-tetrahydro-1,4-benzoxazepin-7-yl]pyridin-2-amine] |
| 250 to 1000 nM | CC1(C)CCc2ncnc(N3CCOc4ccc(-c5cnc(N)c(S(=O)(=O)NC[C@@H]6CCCNC6)c5)cc4C3)c2C1 [Example 386, 2-amino-5-[4-(6,6-dimethyl-5,6,7,8-tetrahydroquinazolin-4-yl)-2,3,4,5-tetrahydro-1,4-benzoxazepin-7-yl]-N-[(3R)-piperidin-3-ylmethyl]pyridine-3-sulfonamide] |
| 10 to 50 nM | Cc1nc(CN(C)C)nc(N2CCOc3ccc(-c4cnc5sc(N)nc5c4)cc3C2)c1CC(C)C [Example 665, 6-(4-{2-[(dimethylamino)methyl]-6-methyl-5-(2-methylpropyl)pyrimidin-4-yl}-2,3,4,5-tetrahydro-1,4-benzoxazepin-7-yl)[1,3]thiazolo[5,4-b]pyridin-2-amine] |
| 250 to 1000 nM | CCNc1nc2ccc(-c3ccc4c(c3)CN(c3ncnc(NCC)c3C)CCO4)cc2[nH]1 [Example 643, N-ethyl-6-{4-[6-(ethylamino)-5-methylpyrimidin-4-yl]-2,3,4,5-tetrahydro-1,4-benzoxazepin-7-yl}-1H-benzimidazol-2-amine] |
| ≤ 10 nM | CCNCc1nc2c(c(N3CCOc4ccc(-c5ccc6nc(C)[nH]c6c5)cc4C3)n1)CC(C)(C)CC2 [Example 589, N-({6,6-dimethyl-4-[7-(2-methyl-1H-benzimidazol-6-yl)-2,3-dihydro-1,4-benzoxazepin-4(5H)-yl]-5,6,7,8-tetrahydroquinazolin-2-yl}methyl)ethanamine] |
| 250 to 1000 nM | CC1(C)CCc2ncnc(N3CCOc4ccc(-c5cnc(Cl)c(S(=O)(=O)N6CC[C@H](N)C6)c5)cc4C3)c2C1 [Example 307, (3S)-1-({2-chloro-5-[4-(6,6-dimethyl-5,6,7,8-tetrahydroquinazolin-4-yl)-2,3,4,5-tetrahydro-1,4-benzoxazepin-7-yl]pyridin-3-yl}sulfonyl)pyrrolidin-3-amine] |
| 50 to 250 nM | CCOc1ccc2ncnc(N3CCOc4ccc(-c5ccc6nc(C)[nH]c6c5)cc4C3)c2c1 [Example 159, 4-[6-(ethyloxy)quinazolin-4-yl]-7-(2-methyl-1H-benzimidazol-6-yl)-2,3,4,5-tetrahydro-1,4-benzoxazepine] |
| ≤ 10 nM | CC1(C)CCc2ncnc(N3CCOc4ccc(-c5cnc6nc(N)[nH]c6c5)cc4C3)c2C1 [Example 177, 6-[4-(6,6-dimethyl-5,6,7,8-tetrahydroquinazolin-4-yl)-2,3,4,5-tetrahydro-1,4-benzoxazepin-7-yl]-1H-imidazo[4,5-b]pyridin-2-amine] |
| 50 to 250 nM | CNC(=O)c1ccc(-c2ccc3c(c2)CN(c2nc(CN(C)C)nc4c2CC(C)(C)CC4)CCO3)cc1 [Example 466, 4-(4-{2-[(dimethylamino)methyl]-6,6-dimethyl-5,6,7,8-tetrahydroquinazolin-4-yl}-2,3,4,5-tetrahydro-1,4-benzoxazepin-7-yl)-N-methylbenzamide] |
| ≥ 2000 nM | CN(C)Cc1nc2c(c(N3CCOc4ccc(-c5ccc(Cl)c(C(N)=O)c5)cc4C3)n1)CC(C)(C)CC2 [Example 428, 2-chloro-5-(4-{2-[(dimethylamino)methyl]-6,6-dimethyl-5,6,7,8-tetrahydroquinazolin-4-yl}-2,3,4,5-tetrahydro-1,4-benzoxazepin-7-yl)benzamide] |
| ≤ 10 nM | Cc1nc2cc(-c3ccc4c(c3)CN(c3nc(N)nc(C)c3Cc3ccc(F)cc3)CCO4)cnc2[nH]1 [Example 690, 5-[(4-fluorophenyl)methyl]-4-methyl-6-[7-(2-methyl-3H-imidazo[4,5-b]pyridin-6-yl)-2,3-dihydro-1,4-benzoxazepin-4(5H)-yl]pyrimidin-2-amine] |
| 10 to 50 nM | Cc1nc2ncc(-c3ccc4c(c3)CN(c3nc(CN5CC[C@H](F)C5)nc5c3CC(C)(C)CC5)CCO4)cc2[nH]1 [Example 464, 4-(2-{[(3S)-3-fluoropyrrolidin-1-yl]methyl}-6,6-dimethyl-5,6,7,8-tetrahydroquinazolin-4-yl)-7-(2-methyl-1H-imidazo[4,5-b]pyridin-6-yl)-2,3,4,5-tetrahydro-1,4-benzoxazepine] |
| 10 to 50 nM | Cc1nc2ncc(-c3ccc4c(c3)CN(c3nc(CNC(C)C5CC5)nc5c3CC(C)(C)CC5)CCO4)cc2[nH]1 (centres unmarked) [Example 360, 1-cyclopropyl-N-({6,6-dimethyl-4-[7-(2-methyl-1H-imidazo[4,5-b]pyridin-6-yl)-2,3-dihydro-1,4-benzoxazepin-4(5H)-yl]-5,6,7,8-tetrahydroquinazolin-2-yl}methyl)ethanamine] |
| ≤ 10 nM | Cc1nc2cc(-c3ccc4c(c3)CN(c3nc(CO)nc(C)c3Cc3ccc(F)cc3)CCO4)ccc2[nH]1 [Example 310, {5-[(4-fluorophenyl)methyl]-4-methyl-6-[7-(2-methyl-1H-benzimidazol-5-yl)-2,3-dihydro-1,4-benzoxazepin-4(5H)-yl]pyrimidin-2-yl}methanol] |
| 50 to 250 nM | Cc1nc2ccc(-c3ccc4c(c3)CN(c3nc(CN5CC[C@H](F)C5)nc5c3CC(C)(C)CC5)CCO4)cc2[nH]1 [Example 463, 4-(2-{[(3S)-3-fluoropyrrolidin-1-yl]methyl}-6,6-dimethyl-5,6,7,8-tetrahydroquinazolin-4-yl)-7-(2-methyl-1H-benzimidazol-6-yl)-2,3,4,5-tetrahydro-1,4-benzoxazepine] |
